According to the NIST ThermoML archive (doi:10.1021/je100472t):

Test: xn = mol fraction of the nth substance listed
Conditions: 101 kPa, Liquid; for speed of sound: Pulse-echo method; for mass density: Vibrating tube method

c1ccncc1 [pyridine] + CCC(C)=O
Conditions | mass density [kg/m3] | speed of sound [m/s]
293.15 K, x2 = 0.0584 | 972.18 | 1424.6
293.15 K, x2 = 0.101 | 964.232 | 1415.8
293.15 K, x2 = 0.1557 | 954.114 | 1404.3
293.15 K, x2 = 0.2073 | 944.625 | 1393.3
293.15 K, x2 = 0.2479 | 937.177 | 1384.6
293.15 K, x2 = 0.2928 | 929.036 | 1374.9
293.15 K, x2 = 0.3534 | 918.142 | 1361.8
293.15 K, x2 = 0.3992 | 909.88 | 1351.6
293.15 K, x2 = 0.4535 | 900.169 | 1339.5
293.15 K, x2 = 0.4962 | 892.606 | 1330
293.15 K, x2 = 0.5461 | 883.748 | 1318.7
293.15 K, x2 = 0.5481 | 883.417 | 1318.2
293.15 K, x2 = 0.6003 | 874.227 | 1306.4
293.15 K, x2 = 0.6425 | 866.814 | 1296.7
293.15 K, x2 = 0.6948 | 857.663 | 1284.5
293.15 K, x2 = 0.7267 | 852.119 | 1277.1
293.15 K, x2 = 0.7519 | 847.742 | 1271.2
293.15 K, x2 = 0.8053 | 838.532 | 1258.7
293.15 K, x2 = 0.855 | 829.934 | 1246.9
293.15 K, x2 = 0.8907 | 823.832 | 1238.4
293.15 K, x2 = 0.9459 | 814.255 | 1224.9
298.15 K, x2 = 0.0517 | 968.413 | 1405.7
298.15 K, x2 = 0.1009 | 959.234 | 1395.4
298.15 K, x2 = 0.151 | 949.923 | 1384.8
298.15 K, x2 = 0.1952 | 941.811 | 1375.4
298.15 K, x2 = 0.2473 | 932.304 | 1364.2
298.15 K, x2 = 0.301 | 922.495 | 1352.5
298.15 K, x2 = 0.3559 | 912.585 | 1340.4
298.15 K, x2 = 0.4041 | 903.885 | 1329.7
298.15 K, x2 = 0.4494 | 895.816 | 1319.6
298.15 K, x2 = 0.4994 | 886.914 | 1308.4
298.15 K, x2 = 0.5472 | 878.48 | 1297.6
298.15 K, x2 = 0.5916 | 870.664 | 1287.4
298.15 K, x2 = 0.6951 | 852.55 | 1263.5
298.15 K, x2 = 0.7563 | 841.861 | 1249.2
298.15 K, x2 = 0.8029 | 833.777 | 1238.1
298.15 K, x2 = 0.8525 | 825.199 | 1226.2
298.15 K, x2 = 0.8944 | 817.974 | 1216.2
298.15 K, x2 = 0.9525 | 808.018 | 1202.3
303.15 K, x2 = 0.0589 | 962.089 | 1384.7
303.15 K, x2 = 0.117 | 951.238 | 1372.5
303.15 K, x2 = 0.162 | 942.929 | 1362.9
303.15 K, x2 = 0.2056 | 934.925 | 1353.6
303.15 K, x2 = 0.2489 | 926.99 | 1344.2
303.15 K, x2 = 0.3075 | 916.353 | 1331.5
303.15 K, x2 = 0.3506 | 908.572 | 1322
303.15 K, x2 = 0.4016 | 899.409 | 1310.8
303.15 K, x2 = 0.4494 | 890.804 | 1300
303.15 K, x2 = 0.4959 | 882.52 | 1289.5
303.15 K, x2 = 0.5482 | 873.285 | 1277.7
303.15 K, x2 = 0.5967 | 864.734 | 1266.6
303.15 K, x2 = 0.6484 | 855.625 | 1254.6
303.15 K, x2 = 0.6972 | 847.054 | 1243.1
303.15 K, x2 = 0.7446 | 838.804 | 1232.1
303.15 K, x2 = 0.7952 | 829.99 | 1220
303.15 K, x2 = 0.8476 | 820.935 | 1207.6
303.15 K, x2 = 0.8928 | 813.143 | 1196.8
303.15 K, x2 = 0.9371 | 805.515 | 1186
